Where a name gives a salt, the structure may show the parent alone.
Target: T1, human CCR9 receptor (Homo sapiens, UniProt P51686)
T1 construct: expressed in transfected cells
T1 sequence (P51686 1-369): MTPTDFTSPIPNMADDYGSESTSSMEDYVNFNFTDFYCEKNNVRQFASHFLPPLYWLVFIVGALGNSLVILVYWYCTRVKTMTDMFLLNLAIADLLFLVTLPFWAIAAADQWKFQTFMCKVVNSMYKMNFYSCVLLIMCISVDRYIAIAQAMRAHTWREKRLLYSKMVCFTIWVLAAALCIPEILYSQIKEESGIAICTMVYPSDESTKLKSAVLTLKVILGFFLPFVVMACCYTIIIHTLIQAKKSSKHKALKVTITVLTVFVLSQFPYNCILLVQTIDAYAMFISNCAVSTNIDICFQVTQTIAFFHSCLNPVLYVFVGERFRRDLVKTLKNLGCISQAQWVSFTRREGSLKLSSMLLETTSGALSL
Assay: CCR9 FLIPR/FlexStation Assay (inhibition of TECK induced calcium mobilization)
Format: cell-based
Settings: CCR9 antagonist activity; TECK induced calcium mobilization in CCR9-Flp-CHO cells stably over expressing human CCR9; rhTECK at EC70; read-out: Binding IC50
Description: Exemplary methods are described in US Publication Nos. US2004/0180892 and US2005/0049286, which are incorporated herein by reference. An exemplary assay for determining CCR9 antagonist activity of the compounds provided herein is CCR9 FLIPR/FlexStation Assay. In certain embodiments, the following protocol is used for the assay:
CCR9 FLIPR/FlexStation Assay Protocol
Calcium assay in FLIPR/FlexStation determines inhibitors of TECK induced calcium mobilization in CCR9-Flp-CHO cells that stably over express human CCR9 receptor. CCR9-Flp-CHO cells are seeded at 25,000 cells/well in a clear bottom, black wall 96-well plate (Greiner #655090) one day prior to assay. Cells are grown in a tissue culture incubator at 37° C. with 5% CO2 for 18 to 24 hours.
Wash buffer and dye loading buffer are prepared fresh each time the assay is performed. Wash buffer is prepared according to the following protocol: 20 ml 10×HBSS (Invitrogen Gibco #14065-056), 4 ml 1M HEPES (Sigma H3784), 174 ml sterile deionized water; then add 140 mg probenecid (Sigma P8761) dissolved in 2 ml 1M NaOH (Fisher S318) to solution and pH to 7.4. This wash buffer contains 1×HBSS, 20 mM HEPES and 2.5 mM probenecid. For one 96-well plate, dye loading buffer is prepared as following: 11 ml wash buffer, 44 μl Fluo-4/pluoronic acid mix (prepared from 22 μL aliquot of 2 mM Fluo-4 (Molecular Probes F14202, 1 mg/tube)+22 μl 20% pluronic F-127 (Molecular Probes P3000MP).
Cells are loaded with dye according to the protocol below:
1. Prepare wash buffer with 1×HBSS/HEPES at room temperature
2. Prepare loading buffer (keep in dark)
3. Aspirate culture media and wash with 100 μl wash buffer per well×1
4. Add 100 μl dye loading buffer to each well
5. Incubate at 37° C. for 30 minutes
6. Aspirate loading buffer
7. Wash with 100 μl wash buffer per well×3
8. Add 100 μl wash buffer per well
9. Incubate at 37° C. for 30 minutes
10. Assay plate with FLIPR or FlexStation
10 mM stock compounds in DMSO are prepared and diluted in DMSO to 1 mM. Compounds are diluted in wash buffer to make 8 point series dilutions containing same final concentration of DMSO (1%). Compounds are tested in duplicate wells for each point. Ligand rhTECK (R&D Systems 334-TK) was diluted to 6× of its EC70 with wash buffer. Appropriate amount of 6× ligand is added to each well. Data is analyzed using XLfit3 software to calculate IC50 value of antagonist activity for each compound.
CCR9 antagonist activity of exemplary compounds was determined using CCR9 FLIPR/FlexStation Assay as described in Section 4.4 and is provided in Table 1 below. The IC50 for the compounds are represented as follows: A≦100 nM; B>100-500 nM; C>500 nM.

IC50: > 500 nM
SMILES: COc1cc(S(=O)(=O)Nc2ccsc2C(=O)O)c(Cl)cc1F [Example 63, 3-(2-chloro-4-fluoro-5-methoxyphenylsulfonamido)thiophene-2-carboxylic acid, disodium salt]
